{
  "source": "the supplement of paper PMC13207355",
  "details_in_all_cases": "exposure time: 72 h",
  "key": {"[1]": {"system": "E13 (patient-derived glioblastoma stem cells of classical subtype)", "test": "surviving fraction (nuclei count normalised to DMSO); higher = more cells surviving (less toxic)"}, "[2]": {"system": "E21 (patient-derived glioblastoma stem cells of mesenchymal subtype)", "test": "surviving fraction (nuclei count normalised to DMSO); higher = more cells surviving (less toxic)"}, "[3]": {"system": "E28 (patient-derived glioblastoma stem cells of classical subtype)", "test": "surviving fraction (nuclei count normalised to DMSO); higher = more cells surviving (less toxic)"}, "[4]": {"system": "E31 (patient-derived glioblastoma stem cells of proneural subtype)", "test": "surviving fraction (nuclei count normalised to DMSO); higher = more cells surviving (less toxic)"}, "[5]": {"system": "E34 (patient-derived glioblastoma stem cells of proneural subtype)", "test": "surviving fraction (nuclei count normalised to DMSO); higher = more cells surviving (less toxic)"}, "[6]": {"system": "E57 (patient-derived glioblastoma stem cells of mesenchymal subtype)", "test": "surviving fraction (nuclei count normalised to DMSO); higher = more cells surviving (less toxic)"}, "[7]": {"system": "FT3469 (normal neural stem cell line)", "test": "surviving fraction (nuclei count normalised to DMSO); higher = more cells surviving (less toxic)"}, "[8]": {"system": "E13", "test": "phenotypic distance (Euclidean, principal components) from DMSO controls (arbitrary units); higher = stronger morphological change"}, "[9]": {"system": "E21", "test": "phenotypic distance (Euclidean, principal components) from DMSO controls (arbitrary units); higher = stronger morphological change"}, "[10]": {"system": "E28", "test": "phenotypic distance (Euclidean, principal components) from DMSO controls (arbitrary units); higher = stronger morphological change"}, "[11]": {"system": "E31", "test": "phenotypic distance (Euclidean, principal components) from DMSO controls (arbitrary units); higher = stronger morphological change"}, "[12]": {"system": "E34", "test": "phenotypic distance (Euclidean, principal components) from DMSO controls (arbitrary units); higher = stronger morphological change"}, "[13]": {"system": "E57", "test": "phenotypic distance (Euclidean, principal components) from DMSO controls (arbitrary units); higher = stronger morphological change"}, "[14]": {"system": "FT3469", "test": "phenotypic distance (Euclidean, principal components) from DMSO controls (arbitrary units); higher = stronger morphological change"}},
  "data": [
    {"smiles": "CC[C@@H]1C(=O)N(C)c2cnc(Nc3ccc(C(=O)N[C@H]4CC[C@H](N5CCN(CC6CC6)CC5)CC4)cc3OC)nc2N1C(C)C", "note": "[Volasertib]", "values": [
      {"measurement": "surviving fraction", "setting": "[1]; 4.1 nM", "result": 0.449},
      {"measurement": "surviving fraction", "setting": "[1]; 12.3 nM", "result": 0.418},
      {"measurement": "surviving fraction", "setting": "[1]; 37 nM", "result": 0.387},
      {"measurement": "surviving fraction", "setting": "[1]; 111.1 nM", "result": 0.387},
      {"measurement": "surviving fraction", "setting": "[1]; 333.3 nM", "result": 0.348},
      {"measurement": "surviving fraction", "setting": "[1]; 1000 nM", "result": 0.301},
      {"measurement": "surviving fraction", "setting": "[1]; 3000 nM", "result": 0.322},
      {"measurement": "surviving fraction", "setting": "[2]; 4.1 nM", "result": 0.459},
      {"measurement": "surviving fraction", "setting": "[2]; 12.3 nM", "result": 0.447},
      {"measurement": "surviving fraction", "setting": "[2]; 37 nM", "result": 0.372},
      {"measurement": "surviving fraction", "setting": "[2]; 111.1 nM", "result": 0.289},
      {"measurement": "surviving fraction", "setting": "[2]; 333.3 nM", "result": 0.207},
      {"measurement": "surviving fraction", "setting": "[2]; 1000 nM", "result": 0.205},
      {"measurement": "surviving fraction", "setting": "[2]; 3000 nM", "result": 0.274},
      {"measurement": "surviving fraction", "setting": "[3]; 4.1 nM", "result": 0.613},
      {"measurement": "surviving fraction", "setting": "[3]; 12.3 nM", "result": 0.688},
      {"measurement": "surviving fraction", "setting": "[3]; 37 nM", "result": 0.648},
      {"measurement": "surviving fraction", "setting": "[3]; 111.1 nM", "result": 0.439},
      {"measurement": "surviving fraction", "setting": "[3]; 333.3 nM", "result": 0.459},
      {"measurement": "surviving fraction", "setting": "[3]; 1000 nM", "result": 0.386},
      {"measurement": "surviving fraction", "setting": "[3]; 3000 nM", "result": 0.39},
      {"measurement": "surviving fraction", "setting": "[4]; 4.1 nM", "result": 0.275},
      {"measurement": "surviving fraction", "setting": "[4]; 12.3 nM", "result": 0.237},
      {"measurement": "surviving fraction", "setting": "[4]; 37 nM", "result": 0.251},
      {"measurement": "surviving fraction", "setting": "[4]; 111.1 nM", "result": 0.163},
      {"measurement": "surviving fraction", "setting": "[4]; 333.3 nM", "result": 0.161},
      {"measurement": "surviving fraction", "setting": "[4]; 1000 nM", "result": 0.148},
      {"measurement": "surviving fraction", "setting": "[4]; 3000 nM", "result": 0.178},
      {"measurement": "surviving fraction", "setting": "[5]; 4.1 nM", "result": 0.769},
      {"measurement": "surviving fraction", "setting": "[5]; 12.3 nM", "result": 0.695},
      {"measurement": "surviving fraction", "setting": "[5]; 37 nM", "result": 0.644},
      {"measurement": "surviving fraction", "setting": "[5]; 111.1 nM", "result": 0.624},
      {"measurement": "surviving fraction", "setting": "[5]; 333.3 nM", "result": 0.503},
      {"measurement": "surviving fraction", "setting": "[5]; 1000 nM", "result": 0.414},
      {"measurement": "surviving fraction", "setting": "[5]; 3000 nM", "result": 0.501},
      {"measurement": "surviving fraction", "setting": "[6]; 4.1 nM", "result": 0.623},
      {"measurement": "surviving fraction", "setting": "[6]; 12.3 nM", "result": 0.679},
      {"measurement": "surviving fraction", "setting": "[6]; 37 nM", "result": 0.463},
      {"measurement": "surviving fraction", "setting": "[6]; 111.1 nM", "result": 0.205},
      {"measurement": "surviving fraction", "setting": "[6]; 333.3 nM", "result": 0.123},
      {"measurement": "surviving fraction", "setting": "[6]; 1000 nM", "result": 0.12},
      {"measurement": "surviving fraction", "setting": "[6]; 3000 nM", "result": 0.141},
      {"measurement": "surviving fraction", "setting": "[7]; 4.1 nM", "result": 0.874},
      {"measurement": "surviving fraction", "setting": "[7]; 12.3 nM", "result": 0.885},
      {"measurement": "surviving fraction", "setting": "[7]; 37 nM", "result": 0.808},
      {"measurement": "surviving fraction", "setting": "[7]; 111.1 nM", "result": 0.646},
      {"measurement": "surviving fraction", "setting": "[7]; 333.3 nM", "result": 0.588},
      {"measurement": "surviving fraction", "setting": "[7]; 1000 nM", "result": 0.506},
      {"measurement": "surviving fraction", "setting": "[7]; 3000 nM", "result": 0.544},
      {"measurement": "phenotypic distance", "setting": "[8]; 4.1 nM", "result": 4.53},
      {"measurement": "phenotypic distance", "setting": "[8]; 12.3 nM", "result": 4.86},
      {"measurement": "phenotypic distance", "setting": "[8]; 37 nM", "result": 5.16},
      {"measurement": "phenotypic distance", "setting": "[8]; 111.1 nM", "result": 4.97},
      {"measurement": "phenotypic distance", "setting": "[8]; 333.3 nM", "result": 4.79},
      {"measurement": "phenotypic distance", "setting": "[8]; 1000 nM", "result": 5.82},
      {"measurement": "phenotypic distance", "setting": "[8]; 3000 nM", "result": 5.69},
      {"measurement": "phenotypic distance", "setting": "[9]; 4.1 nM", "result": 2.95},
      {"measurement": "phenotypic distance", "setting": "[9]; 12.3 nM", "result": 3.49},
      {"measurement": "phenotypic distance", "setting": "[9]; 37 nM", "result": 3.86},
      {"measurement": "phenotypic distance", "setting": "[9]; 111.1 nM", "result": 6.48},
      {"measurement": "phenotypic distance", "setting": "[9]; 333.3 nM", "result": 5.25},
      {"measurement": "phenotypic distance", "setting": "[9]; 1000 nM", "result": 6.04},
      {"measurement": "phenotypic distance", "setting": "[9]; 3000 nM", "result": 7.2},
      {"measurement": "phenotypic distance", "setting": "[10]; 4.1 nM", "result": 1.97},
      {"measurement": "phenotypic distance", "setting": "[10]; 12.3 nM", "result": 1.64},
      {"measurement": "phenotypic distance", "setting": "[10]; 37 nM", "result": 1.4},
      {"measurement": "phenotypic distance", "setting": "[10]; 111.1 nM", "result": 2.98},
      {"measurement": "phenotypic distance", "setting": "[10]; 333.3 nM", "result": 2.89},
      {"measurement": "phenotypic distance", "setting": "[10]; 1000 nM", "result": 3.11},
      {"measurement": "phenotypic distance", "setting": "[10]; 3000 nM", "result": 4.22},
      {"measurement": "phenotypic distance", "setting": "[11]; 4.1 nM", "result": 2.88},
      {"measurement": "phenotypic distance", "setting": "[11]; 12.3 nM", "result": 2.73},
      {"measurement": "phenotypic distance", "setting": "[11]; 37 nM", "result": 2.37},
      {"measurement": "phenotypic distance", "setting": "[11]; 111.1 nM", "result": 3.54},
      {"measurement": "phenotypic distance", "setting": "[11]; 333.3 nM", "result": 3.91},
      {"measurement": "phenotypic distance", "setting": "[11]; 1000 nM", "result": 4.92},
      {"measurement": "phenotypic distance", "setting": "[11]; 3000 nM", "result": 3.6},
      {"measurement": "phenotypic distance", "setting": "[12]; 4.1 nM", "result": 1.64},
      {"measurement": "phenotypic distance", "setting": "[12]; 12.3 nM", "result": 1.44},
      {"measurement": "phenotypic distance", "setting": "[12]; 37 nM", "result": 2.23},
      {"measurement": "phenotypic distance", "setting": "[12]; 111.1 nM", "result": 2.45},
      {"measurement": "phenotypic distance", "setting": "[12]; 333.3 nM", "result": 3.05},
      {"measurement": "phenotypic distance", "setting": "[12]; 1000 nM", "result": 4.15},
      {"measurement": "phenotypic distance", "setting": "[12]; 3000 nM", "result": 3.53},
      {"measurement": "phenotypic distance", "setting": "[13]; 4.1 nM", "result": 2.53},
      {"measurement": "phenotypic distance", "setting": "[13]; 12.3 nM", "result": 2.05},
      {"measurement": "phenotypic distance", "setting": "[13]; 37 nM", "result": 3.22},
      {"measurement": "phenotypic distance", "setting": "[13]; 111.1 nM", "result": 7.13},
      {"measurement": "phenotypic distance", "setting": "[13]; 333.3 nM", "result": 6.28},
      {"measurement": "phenotypic distance", "setting": "[13]; 1000 nM", "result": 6.68},
      {"measurement": "phenotypic distance", "setting": "[13]; 3000 nM", "result": 8.42},
      {"measurement": "phenotypic distance", "setting": "[14]; 4.1 nM", "result": 2.22},
      {"measurement": "phenotypic distance", "setting": "[14]; 12.3 nM", "result": 1.25},
      {"measurement": "phenotypic distance", "setting": "[14]; 37 nM", "result": 1.74},
      {"measurement": "phenotypic distance", "setting": "[14]; 111.1 nM", "result": 2.57},
      {"measurement": "phenotypic distance", "setting": "[14]; 333.3 nM", "result": 2.83},
      {"measurement": "phenotypic distance", "setting": "[14]; 1000 nM", "result": 3.25},
      {"measurement": "phenotypic distance", "setting": "[14]; 3000 nM", "result": 2.99}
    ]}
  ]
}
